Measured values as given in patent US20060062850A1, “Controlled release antimicrobial polymer compositions” (priority 2004, published 2006).

Key:
[1] = system: L. monocytogenes 15313; experiment: spot on lawn assay; type: cell-based
Experimental: For each concentration of each antimicrobial agent, a spot on lawn assay was conducted as a positive control experiment to assess the efficacy of the antimicrobial solutions. In this assay, Trypticase Soy Agar (TSA) and Modified Oxford Agar (MOX) agar plates were inoculated with L. monocytogenes 15313 at a level of 10E+08 cfu/ml through an Autoplate 4000 model from Spiral Biotech, Inc., of Norwood, Mass. A volumetric pipette pump was then used to place three 10 μl spots of antimicrobial solution onto three well-separated regions of the test plate. Another volumetric pipette pump was used to place 10 μl of a negative control solution (i.e., neat solvent(s)) onto another well-separated region. Three such agar plates were prepared for each concentration of antimicrobial solution. After spot placement, the agar plates were allowed to stand undisturbed for 10 to 30 minutes in a laminar flow hood before incubation at 37° C. for at least 24 hours.
The zone of inhibition resulting from each spot of antimicrobial solution was measured using a dial caliper (available from Brown and Sharpe of North Kingstown, R.I.; accuracy to 0.02 mm). Each zone of inhibition was measured twice, once on each of two perpendicular axes. The values reported in Tables 2 (TSA plates) and 3 (MOX plates) are the average of 18 measurements.

[2] = system: L. monocytogenes 15313; experiment: film on lawn assay; type: cell-based; settings: incubation at 37 C.
Experimental: In a film on lawn assay, films of Example 1 and Example 2 were cut into 15 mm by 15 mm samples, placed onto aluminum foil, and exposed to UV light in a laminar flow hood for 4 to 7 minutes. The samples were then transferred from the foil to one of six freshly made up antimicrobial solutions to imbibe for 12 to 24 hours at a specified temperature (4° C. or 37° C.). The films are expected to substantially reach equilibration in less than 12 hours. The films were removed with a pair of flame-sterilized ocular forceps, allowed to drip dry, and held for 60 seconds on a sterile Petri dish before positioning on TSA and MOX agar plates. The agar plates had been prepared as described above with respect to the spot on lawn assay. Two films were placed on each of the prepared agar plates, in well-separated regions. A third 15 mm×15 mm film was imbibed under the same conditions in a negative control solution and placed in another region of the plate. Three plates were prepared in this manner for each concentration of each antimicrobial agent. In the case of the MOX agar plates, a fourth plate was prepared with the same level of innoculum, with no films in it, to serve as a growth indicator plate for color change. After film placement, the plates were allowed to stand undisturbed for 10 to 30 minutes in a laminar flow hood before incubation for at least 24 hours.
Incubation took place at either 4° C. for 14 to 28 days or 37° C. for two to five days. The incubation conditions are noted in the Tables.
The zone of inhibition resulting from each spot of antimicrobial solution was measured as described above, with respect to the spot on lawn assay. The values reported in Tables 5 and 6 are the average of 12 measurements. Occasionally inhibition could be observed on the MOX agar plates, but not easily measured, owing to the relatively diffuse boundaries between areas of inhibition and non-inhibition. In such cases, a qualitative description of the results is provided.

## O=C(O)c1ccccc1 [Benzoic acid]
[1]; MOX Agar Plates, 0.75 wt % in Ethanol/Water (36/63.25)
  Group averages of Inhibition Zones, Spot on Lawn Assay: 7.91 mm
[1]; MOX Agar Plates, 1.5 wt % in Ethanol/Water (36/62.5)
  Group averages of Inhibition Zones, Spot on Lawn Assay: 8.66 mm
[1]; MOX Agar Plates, 3.0 wt % in Ethanol/Water (36/61)
  Group averages of Inhibition Zones, Spot on Lawn Assay: 8.75 mm
[1]; TSA Agar, 0.75 wt % in Ethanol/Water (36/63.25)
  Group averages of Inhibition Zones, Spot on Lawn Assay: 8.13 ± 0.27 mm
[1]; TSA Agar, 1.5 wt % in Ethanol/Water (36/62.5)
  Group averages of Inhibition Zones, Spot on Lawn Assay: 8.32 ± 0.69 mm
[1]; TSA Agar, 3.0 wt % in Ethanol/Water (36/61)
  Group averages of Inhibition Zones, Spot on Lawn Assay: 8.32 ± 0.53 mm
[2]; MOX Agar Plates, Example 1 film soaked at 37 C. in 0.75 wt % solution, Ethanol/Water (36/63.25)
  Group averages of Inhibition Zones, Film on Lawn Assay Example 1: 0 (no inhibition) mm
[2]; MOX Agar Plates, Example 1 film soaked at 37 C. in 1.5 wt % solution, Ethanol/Water (36/62.5)
  Group averages of Inhibition Zones, Film on Lawn Assay Example 1: 24.0 ± 3.34 mm
[2]; MOX Agar Plates, Example 1 film soaked at 37 C. in 3.0 wt % solution, Ethanol/Water (36/61)
  Group averages of Inhibition Zones, Film on Lawn Assay Example 1: 39.52 ± 2.93 mm
[2]; MOX Agar Plates, Example 2 film soaked at 37 C. in 0.75 wt % solution, Ethanol/Water (36/63.25)
  Group averages of Inhibition Zones, Film on Lawn Assay Example 2: 0 (no inhibition) mm
[2]; MOX Agar Plates, Example 2 film soaked at 37 C. in 1.5 wt % solution, Ethanol/Water (36/62.5)
  Group averages of Inhibition Zones, Film on Lawn Assay Example 2: 21.38 ± 3.90 mm
[2]; MOX Agar Plates, Example 2 film soaked at 37 C. in 3.0 wt % solution, Ethanol/Water (36/61)
  Group averages of Inhibition Zones, Film on Lawn Assay Example 2: 32.29 ± 7.53 mm
[2]; TSA Agar, Example 1 film soaked at 37 C. in 0.75 wt % solution, Ethanol/Water (36/63.25)
  Group averages of Inhibition Zones, Film on Lawn Assay Example 1: 0 (no inhibition) mm
[2]; TSA Agar, Example 1 film soaked at 37 C. in 1.5 wt % solution, Ethanol/Water (36/62.5)
  Group averages of Inhibition Zones, Film on Lawn Assay Example 1: 17.68 ± 1.64 mm
[2]; TSA Agar, Example 1 film soaked at 37 C. in 3.0 wt % solution, Ethanol/Water (36/61)
  Group averages of Inhibition Zones, Film on Lawn Assay Example 1: 20.17 ± 1.19 mm
[2]; TSA Agar, Example 2 film soaked at 37 C. in 0.75 wt % solution, Ethanol/Water (36/63.25)
  Group averages of Inhibition Zones, Film on Lawn Assay Example 2: 0 (no inhibition) mm
[2]; TSA Agar, Example 2 film soaked at 37 C. in 1.5 wt % solution, Ethanol/Water (36/62.5)
  Group averages of Inhibition Zones, Film on Lawn Assay Example 2: 18.60 ± 0.61 mm
[2]; TSA Agar, Example 2 film soaked at 37 C. in 3.0 wt % solution, Ethanol/Water (36/61)
  Group averages of Inhibition Zones, Film on Lawn Assay Example 2: 18.90 ± 1.82 mm
